Literature values in patent US8034844B2, “Compositions having a high antiviral efficacy” (The Dial Corporation, priority 2006, dated 2011).

Tested on: rhinoviral infections
Conditions: vs placebo users

## II [iodine]
  Incidence of colds in users: significantly fewer colds than placebo users
